In patent publication US6255327A, “Diphenyl-substituted heterocycles, processes for preparing them and their use as pharmaceutical compositions” (Boehringer Ingelheim Pharma KG, priority 1998, dated 2001):
pKi: −log10 of the molar value.

How the values were obtained:
neurones in mouse brains = conditions: after systemic administration; cited from earlier work
[1] = target: "Na^+ channel site 2" binding site; assay: Affinity to the "Na^+ channel site 2" binding site; conditions: typically at a test concentration of 10 μM
Description: The testing was typically carried out at a test concentration of 10 μM.

AMPA receptor = assay: Inhibition of the cainate-induced signal at the AMPA receptor, electrophysiology on neuronal cells (patch-clamp method); assay type: cell-based; conditions: test concentration of 100 μM
Description: The testing was carried out at a test concentration of 100 μM.

Row | Compound | pKi [1] | destruction of neurones in mouse brains (in words) (neurones in mouse brains) | AMPA Inh. [%] (inhibition of the cainate-induced signal at the AMPA receptor) (AMPA receptor)
1 | N[C@@H](CCC(=O)O)C(=O)O [glutamate] |  | neurones are destroyed in mouse brains | 
2 | CN(C)CCOc1ccccc1-c1c[nH]c(-c2ccccc2)n1 [Example 9, 4-{2-[2(N,N-dimethylamino)ethyl]oxy-phenyl}-2-phenyl-imidazole] | 5.74 |  | 
3 | CN(C)CCOc1ccccc1-n1cnc(-c2ccccc2)n1 [Example 3, 1-{2-[2(N,N-Dimethylamino)ethyl]oxy-phenyl}-3-phenyl-1,2,4-triazole] | 5.43 |  | 74%
4 | CN(C)CCOc1ccccc1-c1nc(-c2ccccc2)nn1C [Example 23, 5-{2-[2(N,N-dimethylamino)-ethyl]oxy-phenyl}-1-methyl-3-phenyl-1,2,4-triazole] | 5.85 |  | 
5 | CN(C)CCOc1ccccc1-c1coc(-c2ccccc2)n1 [Example 8, 4-{2-[2(N,N-dimethylamino)ethyl]oxy-phenyl}-2-phenyl-1,3-oxazole] | 5.34 |  | 77%
6 | CN(C)CCOc1ccccc1-c1n[nH]c(-c2ccccc2)n1 [Example 7, 3-{2-[2(N,N-Dimethylamino)ethyl]oxy-phenyl}-5-phenyl-1,2,4-triazole] | 5.92 |  | 39%
7 | CN(C)CCOc1ccccc1-c1nc(-c2ccccc2)c[nH]1 [Example 25, 2-{2-[2(N,N-dimethylamino)-ethyl]-oxy-phenyl}-4-phenyl-imidazole] | 5.89 |  | 
8 | c1ccc(-c2ncn(-c3ccccc3)n2)cc1 [Example 1, 1,3-Diphenyl-1,2,4-triazole] |  |  | 56%
9 | COc1ccccc1-n1cnc(-c2ccccc2)n1 [Example 2, 1-(2-methoxyphenyl)-3-phenyl-1,2,4-triazole] |  |  | 96%
10 | CN(C)CCOc1ccccc1-c1cn(-c2ccccc2)c(=O)[nH]1 [Example 22, 4-{2-[2(N,N-dimethylamino)ethyl]oxy-phenyl}-1-phenyl-1,3-dihydro-imidazol-2-one] | 5.89 |  | 

Further compounds by rising pKi [1], results first:

Row | pKi [1] | Compound | destruction of neurones in mouse brains (in words) (neurones in mouse brains) | AMPA Inh. [%] (inhibition of the cainate-induced signal at the AMPA receptor) (AMPA receptor)
11 | 5.96 | COc1ccccc1-c1c[nH]c(-c2ccccc2)c1 [Example 13, 3-(2-methoxyphenyl)-5-phenyl-1H-pyrrole] |  | 
12 | 6.00 | CN(C)CCOc1ccccc1-c1nn(-c2ccccc2)c(=O)o1 [Example 12, 5-{2-[2(N,N-dimethylamino)ethyl]oxy-phenyl}-3-phenyl-1,3,4-oxadiazol-2-one] |  | 
13 | 6.00 | CN(C)CCOc1ccccc1-c1cnc(-c2ccccc2)o1 [Example 10, 5-{2-[2(N,N-dimethylamino)ethyl]oxy-phenyl}-2-phenyl-1,3-oxazole] |  | 98%
14 | 6.15 | CN(C)CCOc1ccccc1C1NC(=O)N(c2ccccc2)C1=O (stereo not shown) [Example 21, 5-{2-[2(N,N-dimethylamino)ethyl]oxy-phenyl}-3-phenyl-imidazolidin-2,4-dione] |  | 
15 | 6.15 | CN(C)CCOc1ccccc1-c1ncn(-c2ccccc2)n1 [Example 5, 3-{2-[2(N,N-Dimethylamino)ethyl]oxy-phenyl}-1-phenyl-1,2,4-triazole] |  | 76%
16 | 6.26 | CN(C)CCOc1ccccc1N1C(=O)NC(c2ccccc2)C1=O (stereo not shown) [Example 19, 3-{2-[2(N,N-dimethylamino)ethyl]oxy-phenyl}-5-phenyl-imidazolidin-2,4-dione] |  | 
17 | 6.34 | CN(C)CCOc1ccccc1-c1ccc(-c2ccccc2)[nH]1 [Example 24, 2-{2-[2(N,N-dimethylamino)-ethyl]oxy-phenyl}-5-phenyl-pyrrole] |  | 
18 | 6.41 | COc1ccccc1-c1cnn(-c2ccccc2)c1 [Example 17, 4-(2-methoxyphenyl)-1-phenyl-pyrazole] |  | 53%
19 | 6.44 | CN(C)CCOc1ccccc1-n1cc(-c2ccccc2)[nH]c1=O [Example 20, 1-{2-[2(N,N-dimethylamino)ethyl]oxy-phenyl}-4-phenyl-1,3-dihydro-imidazole-2-one] |  | 
